Assay results reported in patent US20260258035A1, “FIVE-MEMBERED AND SIX-MEMBERED NITROGEN-CONTAINING COMPOUND, AND INTERMEDIATE, PREPARATION METHOD AND USE THEREOF” (HANGZHOU SYNRX THERAPEUTICS BIOMEDICAL TECHNOLOGY CO., LTD., priority 2022, published 2026).
Like-named read-outs stand apart in the source and are kept apart here.

Key:
[1] = test system: Human breast squamous carcinoma cells HCC1806; assay: Cell function assay (In-Cell Western, PAR/pADPr after MMS); assay type: cell-based; settings: read-out: IC50 (nM) in cell function assay
Outline: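 HCC1806 cells adhered 24 h at 37 °C, 5% CO2, then were pretreated 1 h with compound (30000 nM down to 1 nM, plus 0 nM) or DMSO. MMS was then added at 0.5 mM final for 1 h before In-Cell Western detection of PAR/pADPr.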

PXR = target: T1, PXR (Homo sapiens, UniProt O75469); assay: PXR assay (DPX2 luciferase reporter cells); assay type: cell-based; settings: 24 h; for PXR Activation @30 uM (% Ctrl): positive control rifampicin
T1 construct: host or cells: DPX2 (HepG2)
T1 sequence (O75469 1-434): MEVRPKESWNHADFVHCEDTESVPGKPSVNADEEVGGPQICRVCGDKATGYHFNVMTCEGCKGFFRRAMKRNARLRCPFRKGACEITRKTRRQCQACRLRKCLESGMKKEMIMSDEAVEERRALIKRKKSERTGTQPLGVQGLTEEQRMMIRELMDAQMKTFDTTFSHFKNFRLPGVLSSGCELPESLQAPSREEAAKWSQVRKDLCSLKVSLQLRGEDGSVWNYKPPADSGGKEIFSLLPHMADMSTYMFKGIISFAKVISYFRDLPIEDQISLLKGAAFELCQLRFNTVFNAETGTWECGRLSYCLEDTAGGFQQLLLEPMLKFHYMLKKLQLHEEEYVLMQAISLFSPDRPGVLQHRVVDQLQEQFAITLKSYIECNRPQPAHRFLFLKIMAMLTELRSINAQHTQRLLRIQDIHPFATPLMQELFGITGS
Procedure: 1) Information of Cell Line
DPX2 (HepG2 cells stably transfected with PXR and luciferase reporter) cells were purchased from Puracyp Inc (Carlsbad, CA).
2) Experimental Procedures a) Reagents and Consumables
The DPX2 cells were cultured in the growth medium containing 1000 fetal bovine serum. The DPX2 cells in a T-75 flask were cultured in the […] incubator at 37° C. with 950% relative humidity, and digested when the cells grew to cover 80-90% of the bottom of the flask.
The surface layer of the T-75 cultured cells was washed with 10 mL of PBS; PBS was pipetted; 3-5 mL of tryp sin was added; the cells were digested at 37° C. for 5 minutes or until the cells were digested to be suspended; and excessive medium containing fetal bovine serum was added to stop trypsinization. The cell suspension was transferred to a conical-bottomed centrifuge tube and centrifuged at 150 g rpm for 5 minutes at room temperature; the supernatant was carefully pipetted; and the cells were resuspended with the treatment medium, with the concentration adjusted to 3.2×10^5 cells/mL (incubation time: 24 hours, plate seeding density: […]). 25 μL of the cell suspension was added to each well of the 384-well cell culture plate.
The cell culture plate was placed and cultured for 24 h in the […] incubator with 9500 humidity at 37° C. c) Formulation of Compound
The stock solution of each of 1000× test compound, the positive control (rifampicin), and the negative control (propranolol) was prepared with DMSO. The final concentrations of the positive control (rifampicin) were 1 μM and 10 μM, and the final concentration of the negative control (propranolol) was 10 μM. The final concentrations of the test compound were 10 μM, 1 μM, 0.1 μM, or EC50 (30 μM, 10 μM, 3 μM, 1 μM, 0.3 μM, 0.1 μM). The final concentration of DMSO was 0.10. The cell culture plate was taken out from the incubator, and 25 nL of the stock solution of the positive control, negative control or test compound was directly added with Echo, each with three parallel concentrations. The cell culture plate was placed in the incubator and continued to be incubated for 24 h. Before starting the assay with the substrate, the cell morphology and the monolayer integrity were checked to ensure that the monolayer was of acceptable research quality. […]
d) Quantitative Detection with PXR Activation
After 24 hours of dosing, the culture could be quantitatively detected with PXR activation. The CellTiter-Fluor™ Cell Viability Assay Kit and One-Glo Luciferase reagent were equilibrated to room temperature. The GF-AFC substrate (10 μL) was added to the assay buffer (10 ml) to develop a 2× reagent, which was then diluted into a 1× reagent with 10 ml of PBS. The ONE-Glo Luciferase substrate was added to the ONE-Glo Luciferase assay buffer. The culture plate was taken out from the incubator; the medium was discarded; 1× of CellTiter-Fluor™ reagent was poured into the loading slot; 25 μL of reagent were added per well to the culture plate with a pipetting workstation; and the culture plate was then incubated in the incubator for 30 minutes. The cell culture plate was taken out from the incubator, and cooled slightly to room temperature; and the fluorescence value was determined with a fully automatic quantitative microplate reader, with the excitation light of 400 nm and the emission light of 505 nm. The ONE-Glo reagent was poured into the loading slot, with 25 μL per well, and the resulting mixture was gently mixed in the plate, and incubated at room temperature for 5 minutes to determine the luminescence value.

[2] = HCC1806, In-Cell Western, MMS treatment
[3] = HCC1806, compound 1 h then 0.5 mM MMS 1 h, PAR/pADPr antibody, In-Cell Western

| IC50 [1, 2] | IC50 [1, 3] | PXR Activation @30 uM (Fold) (PXR) | PXR Activation @30 uM (% Ctrl) (PXR) | SMILES |
| --- | --- | --- | --- | --- |
| 10.8 nM | < 100 nM | 2.7 Fold | 19 % Ctrl | CC(C)C(=O)N1CCN(c2cc(S(=O)(=O)NC3(C#N)CC3)cn3c(-c4nnc(C(F)F)s4)ncc23)CC1 [Example 32, N-(1-cyanocyclopropyl)-3-(5-(difluoromethyl)-1,3,4-thiadiazol-2-yl)-8-(4-isobutyrylpiperazin-1-yl)imidazo[1,5-a]pyridine-6-sulfonamide] |
| 6.34 nM | < 100 nM | 5.0 Fold | 34 % Ctrl | CC(C)C(=O)N1CCN(c2cc(S(=O)(=O)NC3(C#N)CC3)cn3c(-c4nnc(C(F)(F)F)s4)ncc23)CC1 [Example 167, N-(1-cyanocyclopropyl)-8-(4-isobutyrylpiperazin-1-yl)-3-(5-(trifluoromethyl)-1,3,4-thiadiazol-2-yl)imidazo[1,5-a]pyridine-6-sulfonamide] |
